pEC50: −log10 of the molar value.
Molecular target: T1, hSTING (Homo sapiens, UniProt Q86WV6, G230A/H232R/R293Q/R71H)
T1 construct: host or cells: THP1-Dual KO-IFNAR2 cells
Test: STING reporter assay (luciferase) in THP1-Dual KO-IFNAR2 cells stimulated with 2′3′cGAMP
Assay type: cell-based
Settings: 15 μM 2′3′cGAMP transfected, 24 h, luciferase reporter activity
Method: STING pathway activation by the compounds described herein was measured using THP1-Dual™ cells (KO-IFNAR2).
THP1-Dual™ KO-IFNAR2 Cells (obtained from invivogen) were maintained in RPMI, 10% FCS, 5 ml P/S, 2 mM L-glut, 10 mM Hepes, and 1 mM sodium pyruvate. Compounds were spotted in empty 384 well tissue culture plates (Greiner 781182) by Echo for a final concentration of 0.0017-100 μM. Cells were plated into the TC plates at 40 μL per well, 2×10E6 cells/mL. For activation with STING ligand, 2′3′cGAMP (MW 718.38, obtained from Invivogen), was prepared in Optimem media.
The following solutions were prepared for each 1×384 plate: • Solution A: 2 mL Optimem with one of the following stimuli: • 60 μL of 10 mM 2′3′cGAMP→150 μM stock • Solution B: 2 mL Optimem with 60 μL Lipofectamine 2000→Incubate 5 min at RT
2 mL of solution A and 2 ml Solution B was mixed and incubated for 20 min at room temperature (RT). 20 μL of transfection solution (A+B) was added on top of the plated cells, with a final 2′3′cGAMP concentration of 15 μM. The plates were then centrifuged immediately at 340 g for 1 minute, after which they were incubated at 37° C., 5% CO2, >98% humidity for 24 h. Luciferase reporter activity was then measured. EC50 values were calculated by using standard methods known in the art.
Luciferase reporter assay: 10 μL of supernatant from the assay was transferred to white 384-plate with flat bottom and squared wells. One pouch of QUANTI-Luc™ Plus was dissolved in 25 mL of water. 100 μL of QLC Stabilizer per 25 mL of QUANTI-Luc™ Plus solution was added. 50 μL of QUANTI-Luc™ Plus/QLC solution per well was then added. Luminescence was measured on a Platereader (e.g., Spectramax I3X (Molecular Devices GF3637001)).
Luciferase reporter activity was then measured. EC50 values were calculated by using standard methods known in the art.

T1 sequence (Q86WV6 whole entry R71H/G230A/H232R/R293Q): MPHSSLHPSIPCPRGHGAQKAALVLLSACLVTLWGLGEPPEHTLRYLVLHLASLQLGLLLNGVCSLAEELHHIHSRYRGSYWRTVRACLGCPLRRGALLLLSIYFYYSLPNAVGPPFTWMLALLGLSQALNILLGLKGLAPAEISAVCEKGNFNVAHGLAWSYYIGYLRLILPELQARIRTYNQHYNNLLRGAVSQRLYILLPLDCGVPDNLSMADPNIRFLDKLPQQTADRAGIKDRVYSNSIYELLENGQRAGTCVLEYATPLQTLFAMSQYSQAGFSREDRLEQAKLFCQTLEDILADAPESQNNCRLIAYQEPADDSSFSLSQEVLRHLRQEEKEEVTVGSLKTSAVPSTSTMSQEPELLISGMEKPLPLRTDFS

Row | SMILES | pEC50
1 | CC(C)(Oc1ccccc1)C(=O)Nc1c[nH]c2cc(F)c(F)cc12 [Compound 102, N-(5,6-difluoro-1H-indol-3-yl)-2-methyl-2-phenoxypropanamide] | 4.00 to 5.30
2 | Cc1ccc(OC(C)(C)C(=O)Nc2c[nH]c3cc(F)c(F)cc23)nc1 [Compound 105, N-(5,6-difluoro-1H-indol-3-yl)-2-methyl-2-((5-methylpyridin-2-yl)oxy)propanamide] | 4.00 to 5.30
3 | COc1cccc(CCC(=O)Nc2c[nH]c3cc(F)c(F)cc23)n1 [Compound 108, N-(5,6-difluoro-1H-indol-3-yl)-3-(6-methoxypyridin-2-yl)propanamide] | 4.00 to 5.30
4 | COc1cccc(N2CC(C(=O)Nc3c[nH]c4cc(F)c(F)cc34)CC2=O)c1 (stereo not drawn) [Compound 112, N-(5,6-difluoro-1H-indol-3-yl)-1-(3-methoxyphenyl)-5-oxopyrrolidine-3-carboxamide] | 4.00 to 5.30
5 | C[C@H](NC1CCCCC1)C(=O)Nc1c[nH]c2cc(F)c(F)cc12 [Compound 113, (S)-2-(cyclohexylamino)-N-(5,6-difluoro-1H-indol-3-yl)propanamide] | 4.00 to 5.30
6 | O=C(Nc1c[nH]c2cc(F)c(F)cc12)[C@H]1CCN(C(=O)OCc2ccccc2)C1 [Compound 115, benzyl (S)-3-((5,6-difluoro-1H-indol-3-yl)carbamoyl)pyrrolidine-1-carboxylate] | 4.00 to 5.30
7 | COc1ccc(CCC(=O)Nc2c[nH]c3cc(F)c(F)cc23)cn1 [Compound 116, N-(5,6-difluoro-1H-indol-3-yl)-3-(6-methoxypyridin-3-yl)propanamide] | 4.00 to 5.30
8 | Cc1cc(CC(=O)Nc2c[nH]c3cc(F)c(F)cc23)cnc1N1CCC(F)(F)CC1 [Compound 126, N-(5,6-difluoro-1H-indol-3-yl)-2-(6-(4,4-difluoropiperidin-1-yl)-5-methylpyridin-3-yl)acetamide] | 5.30 to 6.00
9 | O=C(Cc1cccc(OC(F)F)c1)Nc1c[nH]c2cc(F)c(F)cc12 [Compound 127, N-(5,6-difluoro-1H-indol-3-yl)-2-(3-(difluoromethoxy)phenyl)acetamide] | 4.00 to 5.30
10 | O=C(Cc1ccc(OC(F)(F)F)cc1)Nc1c[nH]c2cc(F)c(F)cc12 [Compound 129, N-(5,6-difluoro-1H-indol-3-yl)-2-(4-(trifluoromethoxy)phenyl)acetamide] | 5.30 to 6.00
11 | CC(Oc1ccc(OC(F)(F)F)cc1)C(=O)Nc1c[nH]c2cc(F)c(F)cc12 (stereo not drawn) [Compound 130, N-(5,6-difluoro-1H-indol-3-yl)-2-(4-(trifluoromethoxy)phenoxy)propanamide] | 5.30 to 6.00
12 | CC(Oc1ccc(C(F)(F)F)cc1)C(=O)Nc1c[nH]c2cc(F)c(F)cc12 (stereo not drawn) [Compound 131, N-(5,6-difluoro-1H-indol-3-yl)-2-(4-(trifluoromethyl)phenoxy)propanamide] | 5.30 to 6.00
13 | COc1ccc(CC(=O)Nc2c[nH]c3cc(F)c(F)cc23)cc1C(F)(F)F [Compound 132, N-(5,6-difluoro-1H-indol-3-yl)-2-(4-methoxy-3-(trifluoromethyl)phenyl)acetamide] | 4.00 to 5.30
14 | COc1ccc(CC(C)(C)C(=O)Nc2c[nH]c3cc(F)c(F)cc23)cc1 [Compound 133, N-(5,6-difluoro-1H-indol-3-yl)-3-(4-methoxyphenyl)-2,2-dimethylpropanamide] | 4.00 to 5.30
15 | CC(C)(Oc1ccc(F)cc1)C(=O)Nc1c[nH]c2cc(F)c(F)cc12 [Compound 134, N-(5,6-difluoro-1H-indol-3-yl)-2-(4-fluorophenoxy)-2-methylpropanamide] | 4.00 to 5.30
16 | O=C(Cc1nnn[nH]1)Nc1c[nH]c2ccc(-c3cnn(-c4ccc(C(F)(F)F)cc4)c3)cc12 [Compound 141, 2-(1H-tetrazol-5-yl)-N-(5-(1-(4-(trifluoromethyl)phenyl)-1H-pyrazol-4-yl)-1H-indol-3-yl)acetamide] | 4.00 to 5.30

Further lines, results first:

Row | pEC50 | SMILES
17 | 6.00 to 6.70 | O=C(Cc1cnc(N2CCC(F)(F)CC2)c(Cl)c1)Nc1c[nH]c2ccc(Br)cc12 [Compound 101, N-(5-bromo-1H-indol-3-yl)-2-(5-chloro-6-(4,4-difluoropiperidin-1-yl)pyridin-3-yl)acetamide]
18 | 5.30 to 6.00 | CCOc1ccc(CC(=O)Nc2c[nH]c3cc(F)c(F)cc23)cc1C(F)(F)F [Compound 103, N-(5,6-difluoro-1H-indol-3-yl)-2-(4-ethoxy-3-(trifluoromethyl)phenyl)acetamide]
19 | 6.00 to 6.70 | O=C(CCc1ccc(OC(F)(F)F)cc1)Nc1c[nH]c2cc(F)c(F)cc12 [Compound 104, N-(5,6-difluoro-1H-indol-3-yl)-3-(4-(trifluoromethoxy)phenyl)propanamide]
20 | 6.00 to 6.70 | CCOc1cccc(CCC(=O)Nc2c[nH]c3cc(F)c(F)cc23)c1 [Compound 106, N-(5,6-difluoro-1H-indol-3-yl)-3-(3-ethoxyphenyl)propanamide]
21 | 5.30 to 6.00 | N#Cc1cc(CC(=O)Nc2c[nH]c3cc(F)c(F)cc23)ccn1 [Compound 107, 2-(2-cyanopyridin-4-yl)-N-(5,6-difluoro-1H-indol-3-yl)acetamide]
22 | 5.30 to 6.00 | C/C(=C\c1ccccn1)C(=O)Nc1c[nH]c2cc(F)c(F)cc12 [Compound 109, (E)-N-(5,6-difluoro-1H-indol-3-yl)-2-methyl-3-(pyridin-2-yl)acrylamide]
23 | 6.00 to 6.70 | COc1ccc(/C=C(\C)C(=O)Nc2c[nH]c3cc(F)c(F)cc23)cc1 [Compound 110, (E)-N-(5,6-difluoro-1H-indol-3-yl)-3-(4-methoxyphenyl)-2-methylacrylamide]
24 | 5.30 to 6.00 | O=C(Nc1c[nH]c2cc(F)c(F)cc12)C1CCN(S(=O)(=O)c2ccc(F)cc2)C1 (stereo not drawn) [Compound 111, N-(5,6-difluoro-1H-indol-3-yl)-1-((4-fluorophenyl)sulfonyl)pyrrolidine-3-carboxamide]
25 | 5.30 to 6.00 | O=C(Nc1c[nH]c2cc(F)c(F)cc12)C1CC(Oc2ccccc2)C1 (stereo not drawn) [Compound 114, N-(5,6-difluoro-1H-indol-3-yl)-3-phenoxycyclobutane-1-carboxamide]
26 | 5.30 to 6.00 | O=C(CCc1ccc(C(F)(F)F)nc1)Nc1c[nH]c2cc(F)c(F)cc12 [Compound 117, N-(5,6-difluoro-1H-indol-3-yl)-3-(6-(trifluoromethyl)pyridin-3-yl)propanamide]
27 | 5.30 to 6.00 | O=C(Nc1c[nH]c2cc(F)c(F)cc12)C1CN(Cc2ccccc2)CCO1 (stereo not drawn) [Compound 118, 4-benzyl-N-(5,6-difluoro-1H-indol-3-yl)morpholine-2-carboxamide]
28 | 5.30 to 6.00 | O=C(CCc1cncc(C(F)(F)F)c1)Nc1c[nH]c2cc(F)c(F)cc12 [Compound 119, N-(5,6-difluoro-1H-indol-3-yl)-3-(5-(trifluoromethyl)pyridin-3-yl)propanamide]
29 | 6.00 to 6.70 | Cc1ccc(OCCC(=O)Nc2c[nH]c3cc(F)c(F)cc23)cc1 [Compound 120, N-(5,6-difluoro-1H-indol-3-yl)-3-(p-tolyloxy)propanamide]
30 | 6.00 to 6.70 | CCOc1cccc(/C=C/C(=O)Nc2c[nH]c3cc(F)c(F)cc23)c1 [Compound 128, (E)-N-(5,6-difluoro-1H-indol-3-yl)-3-(3-ethoxyphenyl)acrylamide]
31 | 6.00 to 6.70 | N#Cc1cccc(/C=C/C(=O)Nc2c[nH]c3cc(F)c(F)cc23)c1 [Compound 135, (E)-3-(3-cyanophenyl)-N-(5,6-difluoro-1H-indol-3-yl)acrylamide]
32 | 6.00 to 6.70 | O=C(/C=C/c1ccc(OC(F)(F)F)cc1)Nc1c[nH]c2cc(F)c(F)cc12 [Compound 136, (E)-N-(5,6-difluoro-1H-indol-3-yl)-3-(4-(trifluoromethoxy)phenyl)acrylamide]
33 | 6.00 to 6.70 | Cc1nnc(CC(=O)Nc2c[nH]c3ccc(-c4cnn(-c5ccc(C(F)(F)F)cc5)c4)cc23)o1 [Compound 138, 2-(5-methyl-1,3,4-oxadiazol-2-yl)-N-(5-(1-(4-(trifluoromethyl)phenyl)-1H-pyrazol-4-yl)-1H-indol-3-yl)acetamide]
34 | 6.00 to 6.70 | O=C(CCc1cnoc1)Nc1c[nH]c2ccc(-c3cnn(-c4ccc(C(F)(F)F)cc4)c3)cc12 [Compound 139, 3-(isoxazol-4-yl)-N-(5-(1-(4-(trifluoromethyl)phenyl)-1H-pyrazol-4-yl)-1H-indol-3-yl)propanamide]
35 | 6.00 to 6.70 | O=C(CCc1cn[nH]c1)Nc1c[nH]c2ccc(-c3cnn(-c4ccc(C(F)(F)F)cc4)c3)cc12 [Compound 140, 3-(1H-pyrazol-4-yl)-N-(5-(1-(4-(trifluoromethyl)phenyl)-1H-pyrazo1-4-yl)-1H-indol-3-yl)propanamide]
36 | 6.00 to 6.70 | O=C(CCn1ccnc1)Nc1c[nH]c2ccc(-c3cnn(-c4ccc(C(F)(F)F)cc4)c3)cc12 [Compound 142, 3-(1H-imidazol-1-yl)-N-(5-(1-(4-(trifluoromethyl)phenyl)-1H-pyrazol-4-yl)-1H-indol-3-yl)propanamide]
